Laboratory results published in patent US4895956A, “3-aroyl-6,7-dihydro-5H-pyrrolo(1,2-c)imidazole-7-carboxylic acid derivatives” (Hisamitsu Pharmaceutical Co., Ltd., priority 1987, dated 1990).

Experiments:
[1] = test system: writhing induced by acetic acid; test: Inhibitory actions on the writhing induced by acetic acid in mice; assay type: in vivo, mouse (male ddY strain mice); settings: 50 mg/kg, oral, 30 min before 0.6% acetic acid; writhing counted for 10 min, 5 min after acetic acid; vs control group
Description: Inhibitory actions on the writhing induced by acetic acid in mice
Male ddY strain mice weighing 20-24 g were used a group consisting 7-9 animals. Each compound was orally administered to mice. Thirty minutes later, 0.6% acetic acid was abdominally administered at a dose of 0.1 ml/10 g. The number of writhing was counted 5 minutes after the administration of the acetic acid for 10 minutes. The inhibitory percentage were determined by comparing the number of writhing to the control group.

[2] = test system: carrageenin-induced paw edema; test: Inhibitory actions on carrageenin-induced paw edema; assay type: in vivo, rat (male rats of Wistar strain); settings: 50 mg/kg, oral, 60 min before 1% λ-carrageenin; 3 hours after induction; vs control group
Description: Inhibitory actions on carrageenin-induced paw edema
Using male rats of Wistar strain each weighing approximately 150 g, 0.1 ml of 1% λ-carrageenin was subcutaneously injected into the paw of each rat to induce the reaction. Since then, the volume of paw edema was measured in time course. Each compound of the present invention was orally administered to the rats 60 minutes before the induction of the reaction. As shown in the following Table, the results were expressed in terms of inhibitory percentage in comparison with those in control group at 3 hours after the induction of the reaction.

[3] = test system: gastric mucous; test: Gastric mucous damage test in rats; assay type: in vivo, rat (male rats of Wistar strain); settings: oral, rats fasted 18 hours
Description: Gastric mucous damage test in rats
Using male rats of Wistar strain each weighing approximately 160 g, compounds of the present invention were orally administered to the rats previously fasting for 18 hours. Three point five hours later, 1 ml/rat of a 5% Pontamin Sky Blue solution was intravenously injected to the rats. Rats were dissected to remove the stomachs therefrom. A 10 ml of 70% ethanol was injected into the stomachs to fix them, and the stomachs were cut and washed with a 10% hydrogen peroxide/ethanol mixed liquid and then visually observed to fine whether ulcers were formed therein.

[4] = Acute toxicity test in mice; settings: in vivo; male mouse, oral, 14 days observation
From the text: (§1) Acute toxicity test in rats and mice
(§2) Each group consisting 8 animals such as male Wistar rats weighing about 120 g and male ddY mice weighing about 25 g was used. Compounds of the present invention were orally administered to the animals. General symptoms, changes in body weight and lethality of the test animals had been observed over a period of time for 14 days after the oral administration.

[5] = Acute toxicity test in rats; settings: in vivo; male rat, oral, 14 days observation
From the text: as §1, §2

SMILES	Inhibition (inhibitory percentage of writhing) [1]	Inhibition (inhibitory percentage of paw edema) [2]	Ulcer formation ([3]; 100 mg/kg)	LD50 at 336 h [4]	LD50 at 336 h [5]	Ulcer formation ([3]; 10 mg/kg)
O=C(c1ccccc1Cl)c1nc(Br)c2n1CCC2C(=O)O (stereo not drawn) [Compound of Example 9]	83.3%	50.1%	0/6	> 3000 mg/kg	> 5000 mg/kg	–
COc1ccc(C(=O)c2ncc3n2CCC3C(=O)O)cc1 (stereo not drawn) [Compound of Example 15]	86.3%	53.9%	0/6	> 3000 mg/kg	> 5000 mg/kg	–
COc1ccc2c(c1)c(CC(=O)O)c(C)n2C(=O)c1ccc(Cl)cc1 [Indomethacine, reference compound]	–	–	–	–	–	6/6
CC(=O)Oc1ccccc1C(=O)O [Aspirin, reference compound]	–	–	6/6	–	–	–
CC(C)c1ccc(C(=O)c2ncc3n2CCC3C(=O)O)cc1 (stereo not drawn) [Compound of Example 24]	79.3%	51.6%	0/6	> 3000 mg/kg	> 5000 mg/kg	–
O=C(c1ccccc1)c1nc(Br)c2n1CCC2C(=O)O (stereo not drawn) [Compound of Example 5, 3-benzoyl-1-bromo-6,7-dihydro-5H-pyrrolo[1,2-c]imidazole-7-carboxylic acid]	87.5%	48.4%	0/6	> 3000 mg/kg	> 5000 mg/kg	–
O=C(c1ccc(Cl)cc1)c1nc(Br)c2n1CCC2C(=O)O (stereo not drawn) [Compound of Example 16]	84.5%	50.7%	0/6	> 3000 mg/kg	> 5000 mg/kg	–
